What was measured:
TLR2 [1] = target: T1, TLR2 (Mus musculus, UniProt Q9QUN7); assay: TLR2 functional assay, cytokine release from RAW 264.7 mouse macrophage cell line; format: cell-based; conditions: average of all runs
T1 construct: endogenous in cells; host or cells: RAW 264.7
Description: Cells of the immune system respond to TLR agonists in part by secreting cytokines. Functional assays for TLR2 agonists measure cytokine release from purified immune cells or immortalized cell lines derived from immune cells. Cytokine release is measured by standard ELISA approaches or multiplexed analysis using the Meso Scale Discovery (MSD) platform.
Purified primary human peripheral blood mononuclear cells or RAW 264.7 mouse macrophage cell line cells are plated at approximately 40,000 cells per well. Cells are treated with agonist compounds and assays 6-24 hours post-treatment for cytokines released into the cell culture media.
Following assay measurements utilizing either HEK-Blue detection or cytokine release, all data is analyzed with the GraphPad Prism8 statistical package to determine EC50, binding and activity metrics for the TLR2 modulators.
Numerous cell lines derived from various cell types can respond to TLR2 agonists with stereotyped cytokine and chemokine secretion. In particular, cell lines derived from macrophages respond robustly to TLR2 agonists by secreting a wide array of cytokines, including (but not limited to) TNF-alpha, IL-1, IL-10 and IL-12. The human monocytic cell line THP-1, the mouse macrophage line RAW-264.7, and the rat macrophage line NR8383 were used. For each assay, the respective cell lines were plated into 96-well plates overnight and then treated the following day with various TLR2-engaging compounds at varying concentrations. The next day, supernatants were collected and assayed by multiplex immunodetection for cytokines released (MSD detection kits for respective species).
Data provided in Table 5 is generated using protocols described in Example 45 and 46.

TLR2 [2] = target: TLR2 (Homo sapiens, UniProt O60603); assay: TLR2 agonist screening assay, HEK-Blue TLR2 reporter cell line (NF-kB-driven SEAP, absorbance at 600 nm); format: cell-based; design: host or cells: HEK-293 (HEK-Blue TLR2 reporter cell line); conditions: HEK-Blue TLR2 reporter cells, agonist mode; average of all runs (Table 4)
In short: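 EC50 values come from 600 nm absorbance of SEAP-converted substrate after overnight agonist exposure. The reporter line was HEK-293 engineered with TLR2 and an NF-kB-SEAP construct, seeded at about 40,000 cells per well 16-24 h beforehand. Compounds were added at 1% final DMSO.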

T1 sequence (Q9QUN7 25-784): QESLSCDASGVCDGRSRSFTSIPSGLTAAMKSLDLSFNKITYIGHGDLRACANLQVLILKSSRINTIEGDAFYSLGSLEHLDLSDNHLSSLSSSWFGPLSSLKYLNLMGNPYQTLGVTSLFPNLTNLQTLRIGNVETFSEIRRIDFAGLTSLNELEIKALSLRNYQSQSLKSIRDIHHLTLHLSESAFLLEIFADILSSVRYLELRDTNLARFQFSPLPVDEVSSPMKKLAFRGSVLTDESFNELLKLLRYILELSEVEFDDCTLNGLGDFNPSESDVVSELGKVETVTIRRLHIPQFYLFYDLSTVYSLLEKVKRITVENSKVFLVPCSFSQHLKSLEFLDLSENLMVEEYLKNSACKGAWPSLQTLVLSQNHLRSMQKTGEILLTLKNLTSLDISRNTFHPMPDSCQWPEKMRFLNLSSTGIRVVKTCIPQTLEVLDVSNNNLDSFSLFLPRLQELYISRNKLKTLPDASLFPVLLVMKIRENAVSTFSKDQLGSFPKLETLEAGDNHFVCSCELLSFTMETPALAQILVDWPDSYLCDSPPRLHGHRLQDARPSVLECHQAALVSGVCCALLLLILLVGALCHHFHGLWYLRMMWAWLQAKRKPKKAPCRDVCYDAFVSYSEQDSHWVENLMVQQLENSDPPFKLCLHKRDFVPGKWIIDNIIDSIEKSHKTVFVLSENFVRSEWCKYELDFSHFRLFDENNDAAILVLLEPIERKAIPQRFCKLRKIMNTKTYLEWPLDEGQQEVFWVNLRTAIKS
Chain of TLR2 (Homo sapiens, UniProt O60603) (O60603 21-784): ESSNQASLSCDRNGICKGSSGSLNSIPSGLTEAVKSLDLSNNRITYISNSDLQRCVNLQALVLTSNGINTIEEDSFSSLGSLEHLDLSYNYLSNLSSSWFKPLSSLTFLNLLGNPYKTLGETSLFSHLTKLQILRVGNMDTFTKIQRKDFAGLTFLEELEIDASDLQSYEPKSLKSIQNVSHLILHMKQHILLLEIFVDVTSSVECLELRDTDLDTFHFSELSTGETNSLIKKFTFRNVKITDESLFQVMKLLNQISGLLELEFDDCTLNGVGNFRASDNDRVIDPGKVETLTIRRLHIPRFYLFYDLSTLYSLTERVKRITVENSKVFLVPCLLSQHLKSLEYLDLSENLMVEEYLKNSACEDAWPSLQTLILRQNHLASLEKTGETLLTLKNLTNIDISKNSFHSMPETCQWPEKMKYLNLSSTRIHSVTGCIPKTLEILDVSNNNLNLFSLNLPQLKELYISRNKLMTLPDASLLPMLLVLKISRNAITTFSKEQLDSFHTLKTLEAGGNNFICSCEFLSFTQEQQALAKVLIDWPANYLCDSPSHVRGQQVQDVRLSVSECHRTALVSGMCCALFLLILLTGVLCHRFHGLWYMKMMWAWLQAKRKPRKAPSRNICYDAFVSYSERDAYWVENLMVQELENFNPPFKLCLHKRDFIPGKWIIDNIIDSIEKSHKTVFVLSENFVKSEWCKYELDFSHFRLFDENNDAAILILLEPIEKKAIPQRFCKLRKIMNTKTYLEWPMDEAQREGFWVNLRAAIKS

Row | Structure (SMILES) | EC50 (TLR2 [1]) [nM] | EC50 (TLR2 [2]) [nM]
1 | CCCCCCCNC(=O)N[C@@H](CNC(=O)c1ccc(C(=O)N2C[C@@H](C(=O)N[C@H]3C[C@@H]3c3ccccc3)[C@H](C(=O)N[C@H]3C[C@@H]3c3ccccc3)C2)cc1)C(=O)NCCCCCC [Compound 181, (3S,4S)-1-(4-(((S)-2-(3-heptylureido)-3-(hexylamino)-3-oxopropyl)carbamoyl)benzoyl)-N3,N4-bis ((1S,2R)-2-phenylcyclopropyl) pyrrolidine-3,4-dicarboxamide] | > 1000 | 0.1 to 50
2 | CCCCCCCNC(=O)[C@H](CNC(=O)c1ccc(C(=O)N2C[C@@H](C(=O)N[C@H]3C[C@@H]3c3ccccc3)[C@H](C(=O)N[C@H]3C[C@@H]3c3ccccc3)C2)cc1)NC(=O)CCCCCCC [Compound 184, (3S,4S)-1-(4-(((S)-3-(heptylamino)-2-octanamido-3-oxopropyl)carbamoyl)benzoyl)-N3,N4-bis((1S,2R)-2-phenylcyclopropyl)pyrrolidine-3,4-dicarboxamide] | 51 to 350 | 0.1 to 50
3 | CCCCCCCCCCCCCNC(=O)N[C@H]1CN(C(c2ccc(C(=O)N3C[C@@H](C(=O)N[C@H]4C[C@@H]4c4ccccc4)[C@H](C(=O)N[C@H]4C[C@@H]4c4ccccc4)C3)cc2)C(F)(F)F)C[C@@H]1OC (stereo partly drawn) [Compound 189, (3S,4S)—N3,N4-bis((1S,2R)-2-phenylcyclopropyl)-1-(4-(2,2,2-trifluoro-1-((3S,4S)-3-methoxy-4-(3-tridecylureido)pyrrolidin-1-yl)ethyl)benzoyl)pyrrolidine-3,4-dicarboxamide] | 351 to 1000 | 0.1 to 50
4 | CCCCCCCCCCCCCNC(=O)N[C@@H](CNC(=O)c1ccc(C(=O)N2C[C@@H](C(=O)N[C@H]3C[C@@H]3c3ccccc3)[C@H](C(=O)N[C@H]3C[C@@H]3c3ccccc3)C2)cc1)COC [Compound 198, (3S,4S)-1-(4-(((S)-3-methoxy-2-(3-tridecylureido)propyl)carbamoyl)benzoyl)-N3,N4-bis((1S,2R)-2-phenylcyclopropyl)pyrrolidine-3,4-dicarboxamide] | > 1000 | > 1000
5 | CCCCCCCCCCCCCNC(=O)N[C@@H]1CCCN(C(=O)c2ccc(C(=O)N3C[C@@H](C(=O)N[C@H]4C[C@@H]4c4ccccc4)[C@H](C(=O)N[C@H]4C[C@@H]4c4ccccc4)C3)cc2)C1 [Compound 205, (3S,4S)—N3,N4-bis((1S,2R)-2-phenylcyclopropyl)-1-(4-((R)-3-(3-tridecylureido)piperidine-1-carbonyl)benzoyl)pyrrolidine-3,4-dicarboxamide] | > 1000 | 0.1 to 50
6 | CCCCCCCCCCCCCCC(=O)N[C@@H]1CN(C(=O)c2ccc(C(=O)N3C[C@@H](C(=O)N[C@H]4C[C@@H]4c4ccccc4)[C@H](C(=O)N[C@H]4C[C@@H]4c4ccccc4)C3)cc2)C[C@@H]1OC [Compound 209, (3S,4S)-1-(4-((3S,4R)-3-methoxy-4-pentadecanamidopyrrolidine-1-carbonyl)benzoyl)-N3,N4-bis((1S,2R)-2-phenylcyclopropyl)pyrrolidine-3,4-dicarboxamide] | > 1000 | 0.1 to 50
7 | CCCCCCCCCCCCCNC(=O)N[C@H]1CN(C(=O)c2ccc(C(=O)N3C[C@@H](C(=O)N[C@H]4C[C@@H]4c4ccccc4)[C@H](C(=O)N[C@H]4C[C@@H]4c4ccccc4)C3)cc2)C[C@H]1OC [Compound 210, (3S,4S)-1-(4-((3R,4S)-3-methoxy-4-(3-tridecylureido)pyrrolidine-1-carbonyl)benzoyl)-N3,N4-bis((1S,2R)-2-phenylcyclopropyl)pyrrolidine-3,4-dicarboxamide] | > 1000 | 0.1 to 50
8 | CCCCCCCCNC(=O)N[C@@H](CNC(=O)c1ccc(C(=O)N2C[C@@H](C(=O)N[C@H]3C[C@@H]3c3ccccc3)[C@H](C(=O)N[C@H]3C[C@@H]3c3ccccc3)C2)cc1)C(=O)NCCCCCC [Compound 211, (3S,4S)-1-(4-(((S)-3-(hexylamino)-2-(3-octylureido)-3-oxopropyl)carbamoyl)benzoyl)-N3,N4-bis((1S,2R)-2-phenylcyclopropyl)pyrrolidine-3,4-dicarboxamide] | > 1000 | 0.1 to 50

Results, then the compound that gave them:

Row | EC50 (TLR2 [1]) [nM] | EC50 (TLR2 [2]) [nM] | Structure (SMILES)
9 | 0.1 to 50 | 0.1 to 50 | CCCCCCNC(=O)[C@H](Cn1cc(-c2ccc(C(=O)N3C[C@@H](C(=O)N[C@H]4C[C@@H]4c4ccccc4)[C@H](C(=O)N[C@H]4C[C@@H]4c4ccccc4)C3)cc2)nn1)NC(=O)CCCCCC [Compound 185, (3S,4S)-1-(4-(1-((S)-2-heptanamido-3-(hexylamino)-3-oxopropyl)-1H-1,2,3-triazol-4-yl)benzoyl)-N3,N4-bis((1S,2R)-2-phenylcyclopropyl)pyrrolidine-3,4-dicarboxamide]
10 | 351 to 1000 | 0.1 to 50 | CCCCCCCCCCCCNC(=O)N[C@H]1CN(C(=O)c2ccc(C(=O)N3C[C@@H](C(=O)N[C@H]4C[C@@H]4c4ccccc4)[C@H](C(=O)N[C@H]4C[C@@H]4c4ccccc4)C3)cc2)C[C@@H]1OC [Compound 188, (3S,4S)-1-(4-((3S,4S)-3-(3-dodecylureido)-4-methoxypyrrolidine-1-carbonyl)benzoyl)-N3,N4-bis((1S,2R)-2-phenylcyclopropyl)pyrrolidine-3,4-dicarboxamide]
11 | 351 to 1000 | 0.1 to 50 | CCCCCCCCNC(=O)[C@H](CNC(=O)c1ccc(C(=O)N2C[C@@H](C(=O)N[C@H]3C[C@@H]3c3ccccc3)[C@H](C(=O)N[C@H]3C[C@@H]3c3ccccc3)C2)cc1)NC(=O)CCCCCCCC [Compound 197, (3S,4S)-1-(4-(((S)-2-nonanamido-3-(octylamino)-3-oxopropyl)carbamoyl)benzoyl)-N3,N4-bis((1S,2R)-2-phenylcyclopropyl)pyrrolidine-3,4-dicarboxamide]
12 | > 1000 | 0.1 to 50 | CCCCCCCCCCCNC(=O)N[C@H]1CN(C(=O)c2ccc(C(=O)N3C[C@@H](C(=O)N[C@H]4C[C@@H]4c4ccccc4)[C@H](C(=O)N[C@H]4C[C@@H]4c4ccccc4)C3)cc2)C[C@@H]1OC [Compound 199, (3S,4S)-1-(4-((3S,4S)-3-methoxy-4-(3-undecylureido)pyrrolidine-1-carbonyl)benzoyl)-N3,N4-bis((1S,2R)-2-phenylcyclopropyl)pyrrolidine-3,4-dicarboxamide]
13 | > 1000 | 0.1 to 50 | CCCCCCCCCCCCNC(=O)N[C@@H]1CCCN(C(=O)c2ccc(C(=O)N3C[C@@H](C(=O)N[C@H]4C[C@@H]4c4ccccc4)[C@H](C(=O)N[C@H]4C[C@@H]4c4ccccc4)C3)cc2)C1 [Compound 204, (3S,4S)-1-(4-((R)-3-(3-dodecylureido)piperidine-1-carbonyl)benzoyl)-N3,N4-bis((1S,2R)-2-phenylcyclopropyl)pyrrolidine-3,4-dicarboxamide]
14 | > 1000 | 0.1 to 50 | CCCCCCCCCCCCCCNC(=O)N[C@@H]1CCCN(C(=O)c2ccc(C(=O)N3C[C@@H](C(=O)N[C@H]4C[C@@H]4c4ccccc4)[C@H](C(=O)N[C@H]4C[C@@H]4c4ccccc4)C3)cc2)C1 [Compound 206, (3S,4S)—N3,N4-bis((1S,2R)-2-phenylcyclopropyl)-1-(4-((R)-3-(3-tetradecylureido)piperidine-1-carbonyl)benzoyl)pyrrolidine-3,4-dicarboxamide]
15 | 351 to 1000 | 0.1 to 50 | CCCCCCCCC(=O)N[C@@H](Cn1cc(-c2ccc(C(=O)N3C[C@@H](C(=O)N[C@H]4C[C@@H]4c4ccccc4)[C@H](C(=O)N[C@H]4C[C@@H]4c4ccccc4)C3)cc2)nn1)C(=O)NCCCCCC [Compound 212, (3S,4S)-1-(4-(1-((S)-3-(hexylamino)-2-nonanamido-3-oxopropyl)-1H-1,2,3-triazol-4-yl)benzoyl)-N3,N4-bis ((1S,2R)-2-phenylcyclopropyl) pyrrolidine-3,4-dicarboxamide]
16 | 51 to 350 | 0.1 to 50 | CCCCCCCCCC(=O)N[C@@H](Cn1cc(-c2ccc(C(=O)N3C[C@@H](C(=O)N[C@H]4C[C@@H]4c4ccccc4)[C@H](C(=O)N[C@H]4C[C@@H]4c4ccccc4)C3)cc2)nn1)C(=O)NCCCCCC [Compound 213, (3S,4S)-1-(4-(1-((S)-2-decanamido-3-(hexylamino)-3-oxopropyl)-1H-1,2,3-triazol-4-yl)benzoyl)-N3,N4-bis((1S,2R)-2-phenylcyclopropyl)pyrrolidine-3,4-dicarboxamide]
17 | 0.1 to 50 | 51 to 350 | CCCCCCNC(=O)[C@H](Cn1cnc(-c2ccc(C(=O)N3C[C@@H](C(=O)N[C@H]4C[C@@H]4c4ccccc4)[C@H](C(=O)N[C@H]4C[C@@H]4c4ccccc4)C3)cc2)c1)NC(=O)CCCCCC [Compound 214, (3S,4S)-1-(4-(1-((S)-2-heptanamido-3-(hexylamino)-3-oxopropyl)-1H-imidazol-4-yl)benzoyl)-N3,N4-bis((1S,2R)-2-phenylcyclopropyl)pyrrolidine-3,4-dicarboxamide]
